From patent US20210215714A1, “COMPLEMENT ALTERNATIVE PATHWAY-ASSOCIATED NEPHROPATHY BIOMARKERS” (Achillion Pharmaceuticals, Inc., priority 2018, published 2021)

Tested on: sC5b-9
Experiment: Phase 2a study: urinary sC5b-9 (MicroVue sC5b-9 Enzyme Immunoassay);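 further: urine from C3 glomerulopathy or IC-MPGN patients, sandwich ELISA capturing sC5b-9 via C9-ring monoclonal with HRP detection read at 450 nm, values raw or normalized to creatinine or albumin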
[1] = Patient A, 100 mg TID, Day 1/0 Hour
[2] = Patient A, 100 mg TID, Day 7/0 Hour
[3] = Patient A, 100 mg TID, Day 15 Taper
[4] = Patient A, 100 mg TID, Day 16 Taper
[5] = Patient A, 100 mg TID, Day 17 Taper
[6] = Patient A, 100 mg TID, Day 21 Taper
[7] = Patient A, 100 mg TID, Follow-Up Day 24
[8] = Patient A, 100 mg TID, Follow-Up Day 28
[9] = Patient A, 100 mg TID, Follow-Up Day 49
[10] = Patient B, 100 mg TID, Day 1/0 Hour
[11] = Patient B, 100 mg TID, Day 7/0 Hour
[12] = Patient B, 100 mg TID, Day 15 Taper
[13] = Patient B, 100 mg TID, Day 16 Taper
[14] = Patient B, 100 mg TID, Day 17 Taper
[15] = Patient B, 100 mg TID, Day 21 Taper
[16] = Patient B, 100 mg TID, Follow-Up Day 24
[17] = Patient B, 100 mg TID, Follow-Up Day 28
[18] = Patient B, 100 mg TID, Follow-Up Day 49
[19] = Patient C, 200 mg TID, Day 1/0 Hour
[20] = Patient C, 200 mg TID, Day 7/0 Hour
[21] = Patient C, 200 mg TID, Day 15 Taper
[22] = Patient C, 200 mg TID, Day 16 Taper
[23] = Patient C, 200 mg TID, Day 17 Taper
[24] = Patient C, 200 mg TID, Day 21 Taper
[25] = Patient C, 200 mg TID, Follow-Up Day 24
[26] = Patient C, 200 mg TID, Follow-Up Day 28
[27] = Patient C, 200 mg TID, Follow-Up Day 49
[28] = Patient C, 200 mg TID, Screen 1
[29] = Patient D, 200 mg TID, Day 1/0 Hour
[30] = Patient D, 200 mg TID, Day 7/0 Hour
[31] = Patient D, 200 mg TID, Day 15 Taper
[32] = Patient D, 200 mg TID, Day 17 Taper

Source text: 10 patients with either C3 Glomerulopathy (C3G) or Immune-Complex Membranoproliferative Glomerulonephritis (IC-MPGN) are to be enrolled across two dose groups. […] Inclusion criteria include a clinical diagnosis of C3G (C3 glomerulonephritis [C3GN] or dense deposit disease [DDD], the 2 types of C3G) or idiopathic immune-complex membranoproliferative glomerulonephritis (IC-MPGN) by renal biopsy for at least 3 months prior to dosing, with the pathologic diagnosis verified by review of the renal biopsy by the study central pathologist. Patients must have low C3 levels (<50% of the lower limit of normal) and normal or near-normal C4 levels (>90% of the lower limit of normal).
To measure urinary sC5b-9 production, patient urine samples were tested utilizing the MicroVue sC5b-9 Enzyme Immunoassay for the quantitation of sC5b-9 in urine. […] The samples were tested utilizing the MicroVue sC5b-9 Enzyme Immunoassay for the quantitation of sC5b-9 urine, which is a three-step procedure utilizing a micro-assay plate coated with a mouse monoclonal antibody that binds specifically to the C9 ring of sC5b-9, HRP-conjugated antibodies to antigens of sC5b-9, and a chromogenic substrate. In step 1, standards, controls, and test specimens are added to micro-assay wells pre-coated with an anti-sC5b-9 specific monoclonal antibody. sC5b-9 present in the Standards, Controls, or specimens will bind to the immobilized sC5b-9 monoclonal antibody. After incubation, a wash cycle removes unbound material. […] In step 2, horseradish peroxidase (HRP)-conjugated antibodies to antigens of sC5b-9 are added to each test well. The enzyme conjugated antibodies bind to sC5b-9 that was captured by the monoclonal anti-sC5b-9 bound on the surface of the micro-assay wells. After incubation, a wash cycle removes unbound, excess conjugate. In step 3, a chromogenic enzyme substrate is added to each micro-assay well. The bound HRP-conjugate reacts with the substrate, forming a blue color. After incubation the enzyme reaction is stopped chemically, the color changes to yellow, and the color intensity is measured spectrophotometrically at 450 nm. The color intensity of the reaction mixture is proportional to the concentration of sC5b-9 present in the test specimens, standards, and controls. […] Measurements of urinary biomarkers are typically normalized to urine creatinine or albumin levels to account for variation in biomarker levels due to changes in urinary filtration rate.

CC(=O)c1nn(CC(=O)N2C[C@H](F)C[C@H]2C(=O)Nc2cccc(Br)n2)c2ccc(-c3cnc(C)nc3)cc12 [Compound 1, (2S,4R)-1-(2-(3-acetyl-5-(2-methylpyrimidin-5-yl)-1H-indazol-1-yl)acetyl)-N-(6-bromopyridin-2-yl)-4-fluoropyrrolidine-2-carboxamide]
sC5b-9/ALB [1]: 38 ng/mg
sC5b-9/Cr [1]: 9.9 µg/mmol
Urine sC5b-9 (Patient A, 100 mg TID, Day 1 predose): 81.2 ng/mL
Urine sC5b-9 (Patient A, 100 mg TID, Day 4): 84.2 ng/mL
sC5b-9/ALB (Patient A, 100 mg TID, Day 4): 48 ng/mg
sC5b-9/Cr (Patient A, 100 mg TID, Day 4): 10.5 µg/mmol
Urine sC5b-9 (Patient A, 100 mg TID, Day 7): 70.4 ng/mL
sC5b-9/ALB [2]: 46 ng/mg
sC5b-9/Cr [2]: 10.7 µg/mmol
Urine sC5b-9 (Patient A, 100 mg TID, Day 10): 52.0 ng/mL
sC5b-9/ALB (Patient A, 100 mg TID, Day 10): 37 ng/mg
sC5b-9/Cr (Patient A, 100 mg TID, Day 10): 8.4 µg/mmol
Urine sC5b-9 [3]: 56.9 ng/mL
sC5b-9/ALB [3]: 54 ng/mg
sC5b-9/Cr [3]: 7.8 µg/mmol
Urine sC5b-9 [4]: 66.2 ng/mL
sC5b-9/ALB [4]: 62 ng/mg
sC5b-9/Cr [4]: 8.8 µg/mmol
Urine sC5b-9 [5]: 84.4 ng/mL
sC5b-9/ALB [5]: 74 ng/mg
sC5b-9/Cr [5]: 8.5 µg/mmol
Urine sC5b-9 [6]: 85.8 ng/mL
sC5b-9/ALB [6]: 70 ng/mg
sC5b-9/Cr [6]: 9.9 µg/mmol
Urine sC5b-9 [7]: 95.0 ng/mL
sC5b-9/ALB [7]: 69 ng/mg
sC5b-9/Cr [7]: 9.5 µg/mmol
Urine sC5b-9 [8]: 79.7 ng/mL
sC5b-9/ALB [8]: 61 ng/mg
sC5b-9/Cr [8]: 8.0 µg/mmol
Urine sC5b-9 [9]: 57.5 ng/mL
sC5b-9/ALB [9]: 92 ng/mg
sC5b-9/Cr [9]: 13.4 µg/mmol
Urine sC5b-9 (Patient A, 100 mg TID, Screen): 76.3 ng/mL
sC5b-9/ALB (Patient A, 100 mg TID, Screen): 40 ng/mg
sC5b-9/Cr (Patient A, 100 mg TID, Screen): 9.2 µg/mmol
sC5b-9/ALB [10]: 1500 ng/mg
sC5b-9/Cr [10]: 866 µg/mmol
Urine sC5b-9 (Patient B, 100 mg TID, Day 1 predose): 5280 ng/mL
Urine sC5b-9 (Patient B, 100 mg TID, Day 4): 2139 ng/mL
sC5b-9/ALB (Patient B, 100 mg TID, Day 4): 637 ng/mg
sC5b-9/Cr (Patient B, 100 mg TID, Day 4): 168 µg/mmol
Urine sC5b-9 (Patient B, 100 mg TID, Day 7): 2266 ng/mL
sC5b-9/ALB [11]: 624 ng/mg
sC5b-9/Cr [11]: 155 µg/mmol
Urine sC5b-9 (Patient B, 100 mg TID, Day 10): 1073 ng/mL
sC5b-9/ALB (Patient B, 100 mg TID, Day 10): 563 ng/mg
sC5b-9/Cr (Patient B, 100 mg TID, Day 10): 143 µg/mmol
Urine sC5b-9 (Patient B, 100 mg TID, Day 14): 4010 ng/mL
sC5b-9/ALB (Patient B, 100 mg TID, Day 14): 911 ng/mg
sC5b-9/Cr (Patient B, 100 mg TID, Day 14): 240 µg/mmol
Urine sC5b-9 [12]: 3334 ng/mL
sC5b-9/ALB [12]: 929 ng/mg
sC5b-9/Cr [12]: 303 µg/mmol
Urine sC5b-9 [13]: 4784 ng/mL
sC5b-9/ALB [13]: 1154 ng/mg
sC5b-9/Cr [13]: 380 µg/mmol
Urine sC5b-9 [14]: 2693 ng/mL
sC5b-9/ALB [14]: 907 ng/mg
sC5b-9/Cr [14]: 238 µg/mmol
Urine sC5b-9 [15]: 2469 ng/mL
sC5b-9/ALB [15]: 821 ng/mg
sC5b-9/Cr [15]: 305 µg/mmol
Urine sC5b-9 [16]: 3958 ng/mL
sC5b-9/ALB [16]: 1380 ng/mg
sC5b-9/Cr [16]: 649 µg/mmol
Urine sC5b-9 [17]: 2376 ng/mL
sC5b-9/ALB [17]: 882 ng/mg
sC5b-9/Cr [17]: 335 µg/mmol
Urine sC5b-9 [18]: 14132 ng/mL
sC5b-9/ALB [18]: 6312 ng/mg
sC5b-9/Cr [18]: 883 µg/mmol
Urine sC5b-9 (Patient B, 100 mg TID, Screen): 2598 ng/mL
sC5b-9/ALB (Patient B, 100 mg TID, Screen): 724 ng/mg
sC5b-9/Cr (Patient B, 100 mg TID, Screen): 351 µg/mmol
sC5b-9/ALB [19]: 203 ng/mg
sC5b-9/Cr [19]: 11.9 µg/mmol
Urine sC5b-9 (Patient C, 200 mg TID, Day 1 predose): 21.5 ng/mL
Urine sC5b-9 (Patient C, 200 mg TID, Day 4): <8.8 ng/mL
sC5b-9/ALB (Patient C, 200 mg TID, Day 4): 173 ng/mg
sC5b-9/Cr (Patient C, 200 mg TID, Day 4): 4.63 µg/mmol
Urine sC5b-9 (Patient C, 200 mg TID, Day 7): <8.8 ng/mL
sC5b-9/ALB [20]: 110 ng/mg
sC5b-9/Cr [20]: 2.38 µg/mmol
Urine sC5b-9 (Patient C, 200 mg TID, Day 10): <8.8 ng/mL
sC5b-9/ALB (Patient C, 200 mg TID, Day 10): 160 ng/mg
sC5b-9/Cr (Patient C, 200 mg TID, Day 10): 5.50 µg/mmol
Urine sC5b-9 (Patient C, 200 mg TID, Day 14): <8.8 ng/mL
sC5b-9/ALB (Patient C, 200 mg TID, Day 14): 220 ng/mg
sC5b-9/Cr (Patient C, 200 mg TID, Day 14): 6.77 µg/mmol
Urine sC5b-9 [21]: <8.8 ng/mL
sC5b-9/ALB [21]: 131 ng/mg
sC5b-9/Cr [21]: 5.87 µg/mmol
Urine sC5b-9 [22]: <8.8 ng/mL
sC5b-9/ALB [22]: 176 ng/mg
sC5b-9/Cr [22]: 4.63 µg/mmol
Urine sC5b-9 [23]: <8.8 ng/mL
sC5b-9/ALB [23]: 126 ng/mg
sC5b-9/Cr [23]: 4.00 µg/mmol
Urine sC5b-9 [24]: 10.3 ng/mL
sC5b-9/ALB [24]: 158 ng/mg
sC5b-9/Cr [24]: 3.67 µg/mmol
Urine sC5b-9 [25]: 11.0 ng/mL
sC5b-9/ALB [25]: 186 ng/mg
sC5b-9/Cr [25]: 6.11 µg/mmol
Urine sC5b-9 [26]: 21.2 ng/mL
sC5b-9/ALB [26]: 154 ng/mg
sC5b-9/Cr [26]: 7.32 µg/mmol
Urine sC5b-9 [27]: 14.0 ng/mL
sC5b-9/ALB [27]: 149 ng/mg
sC5b-9/Cr [27]: 3.04 µg/mmol
Urine sC5b-9 (Patient C, 200 mg TID, Screen): 32.1 ng/mL
sC5b-9/ALB (Patient C, 200 mg TID, Screen): 387 ng/mg
sC5b-9/Cr (Patient C, 200 mg TID, Screen): 16.9 µg/mmol
Urine sC5b-9 [28]: 57.4 ng/mL
sC5b-9/ALB [28]: 422 ng/mg
sC5b-9/Cr [28]: 52.2 µg/mmol
sC5b-9/ALB [29]: 22 ng/mg
sC5b-9/Cr [29]: 4.8 µg/mmol
Urine sC5b-9 (Patient D, 200 mg TID, Day 1 predose): 28.1 ng/mL
Urine sC5b-9 (Patient D, 200 mg TID, Day 4): 18.5 ng/mL
sC5b-9/ALB (Patient D, 200 mg TID, Day 4): 15 ng/mg
sC5b-9/Cr (Patient D, 200 mg TID, Day 4): 4.1 µg/mmol
Urine sC5b-9 (Patient D, 200 mg TID, Day 7): 15.8 ng/mL
sC5b-9/ALB [30]: 43 ng/mg
sC5b-9/Cr [30]: 14.3 µg/mmol
Urine sC5b-9 (Patient D, 200 mg TID, Day 10): 8.9 ng/mL
sC5b-9/ALB (Patient D, 200 mg TID, Day 10): 14 ng/mg
sC5b-9/Cr (Patient D, 200 mg TID, Day 10): 8.9 µg/mmol
Urine sC5b-9 (Patient D, 200 mg TID, Day 14): 12.0 ng/mL
sC5b-9/ALB (Patient D, 200 mg TID, Day 14): 13 ng/mg
sC5b-9/Cr (Patient D, 200 mg TID, Day 14): 3.9 µg/mmol
Urine sC5b-9 [31]: 20.3 ng/mL
sC5b-9/ALB [31]: 10 ng/mg
sC5b-9/Cr [31]: 4.8 µg/mmol
Urine sC5b-9 [32]: 15.3 ng/mL
sC5b-9/ALB [32]: 9 ng/mg
sC5b-9/Cr [32]: 5.3 µg/mmol
